Source: patent US20060160095A1, “Survivin” (EiRx Therapeutics Limited, priority 2002, published 2006)

What was measured:
[1] = system: survivin; experiment: Immunoblotting of survivin protein in neutrophils; assay type: cell-based, human; details: cultured for 12 h in the presence of cytokine
Protocol: (§1) Neutrophils are cultured at 1×10^6 per ml in complete culture medium. GM-CSF (50 ng/ml; kind gift of T. Hartung, University of Konstanz, Konstanz, Germany) or G-CSF (25 ng/ml; PeproTech, BioConcept, Allschwil, Switzerland) are added. The duration of GM-CSF or G-CSF stimulation is indicated in each experiment.
Neutrophils (5×10^6) are washed with PBS, lysed with RIPA-buffer (0.5% sodium deoxycholate, 1% Nonidet P-40, 0.1% SDS in PBS) supplemented with a protease inhibitor-cocktail (Sigma) with frequent vortexing on ice for 40 min, including two freeze/thaw cycles using a methanol/dry ice bath. After a 10-min centrifugation to remove insoluble particles, equal amounts of the cell lysates are loaded on NuPage-Gels (Invitrogen Corp., Groningen, Netherlands). Separated proteins are electrotransferred onto polyvinylidene difluoride (PVDF) membranes (Immobilion-P, Millipore, Bedford, Mass.). The filters are incubated overnight with a polyclonal anti-survivin antibody (1/1000; R&D Systems, Abingdon, UK) at 4° C. in TBS/0.1% Tween-20/3% non-fat dry milk. Purified full-length recombinant human survivin (2 μl) is provided by R&D Systems as positive control for anti-survivin immunoblotting. For loading controls, stripped filters are incubated with a monoclonal anti-β-actin antibody (1/10,000; Sigma). Filters are washed in TBS/0.1% Tween-20 for 30 min and incubated with the appropriate HRP-conjugated secondary antibody (Amersham Pharmacia Biotech, Dübendorf, Switzerland) in TBS/0.1% Tween-20/5% non-fat dry milk for 1 h. Filters are developed by an ECL-technique (ECL-Kit, Amersham Pharmacia Biotech) according to the manufacturer's instructions.
(§2) The 20-mer first generation antisense oligonucleotide 4003 targeting the survivin mRNA has been described above. The second generation 2′-O-methoxy-ethoxy (2′-MOE) gapmer version of 4003 (as) and its 3-base mismatch sequence control (ms) are synthesized using an Applied Biosystems 394B automated DNA synthesizer as described (De Mesaeker et al. (1995) Acc. Chem. Res. 28, 366-374). Sequences are as follows: antisense survivin, cscscsasgsCsCsTsTsCsCsAsGsCsTscscststsg; mismatch survivin, cscstsasgsCsCsTsTsCsCsAsGsGsTscscstsasg. Small letters refer to 2′-O-(2-methoxy)-ethyl-modified nucleotides, capital letters to DNA, and “s” refers to phosphorothioate linkages. Cells isolated and cultured as described above are treated with survivin antisense oligonucleotides (as) or survivin mismatch control oligonucleotides (ms) at the indicated concentrations. In the experiments in which GM-CSF (50 ng/ml; kind gift of T. Hartung, University of Konstanz, Konstanz, Germany) or G-CSF (25 ng/ml; PeproTech, BioConcept, Allschwil, Switzerland) are added, the oligonucleotides are given 2 h before addition of cytokines.

[2] = system: Survivin mRNA; experiment: Real-time PCR quantification of survivin mRNA in neutrophils; assay type: cell-based, human; details: cytokine added in vitro; A549 standard = 100%
Protocol: as §1
Neutrophils (1×10^7) are washed with PBS and the RNA is isolated according to the RNeasy protocol (Qiagen AG, Basel, Switzerland), which includes DNase digestion. RNA is reverse transcribed with the first strand cDNA synthesis kit (Amersham Pharmacia Biotech) by using random hexanucleotides according to the manufacturer's instructions. Real-time monitoring of PCR amplification of survivin cDNA is performed with a 1/100 dilution of neutrophil cDNA as previously described (Olie et al. (2000) Cancer Research 60, 2805-2809). Relative quantification of survivin expression is performed as described (Olie et al. (2000) Cancer Research 60, 2805-2809) utilizing rRNA as an internal standard.
as §2

[3] = system: caspase-3; experiment: Caspase-3 immunoblotting in neutrophils; assay type: cell-based, human; details: neutrophils cultured with GM-CSF or G-CSF for 10 h
Protocol: Immunoblotting is carried out as described above using supernatants of cell lysates. Caspase-3 is detected using a polyclonal anti-caspase-3 antibody (1/1000; Becton Dickinson Pharmingen, Heidelberg, Germany))
Neutrophils (2.5×10^6) are cultured in the presence or absence of GM-CSF (50 ng/ml), G-CSF (25 ng/ml), 2-MOE modified antisense or mismatch survivin oligonucleotides at the indicated concentrations for 10 h, washed with cold PBS and subsequently lysed in 50 μl cell lysis buffer (50 mM HEPES, pH 7.4/0.1% Chaps/5 mM DTT/0.1 mM EDTA) using a Teflon glass homogenizer (VWR International, Ismaning, Germany) on ice for 10 min. After a 10-min centrifugation step at 10,000×g at 4° C., an aliquot of the supernatant is saved for caspase-3 immunoblotting and caspase 3-like activity is measured in 10 μl supernatants as enzymatic-conversion of the colorimetric substrate Ac-DEVD-pNA at 405 nm according to the manufacturer's instructions (QuantiZyme caspase 3 cellular activity assay kit, Biomol, Plymouth Meeting, Pa., USA).

[4] = system: Primary human neutrophils; experiment: MTT survival assay of neutrophils cultured with GM-CSF, with or without gliotoxin; assay type: cell-based; details: various amounts of GM-CSF, 18 h culture
Protocol: Primary human neutrophils are isolated and purified from peripheral blood of normal healthy individuals. Neutrophils are resuspended in serum containing culture medium together with various amounts of GM-CSF at a density of 2×10^6/ml, with 100 μl plated into a 96 well plate and cultured for 18 h at 37° C. After this time 10 μl of MTT (5 mg/ml) is added to the cultures and incubated for a further 4 h at 37° C. before solubilisation of the purple coloured formazan with acidic isopropanol. Optical densities are read at 570 nm using a plate reader.
Primary human neutrophils are isolated and purified from peripheral blood of normal healthy individuals. Neutrophils are resuspended in serum containing culture medium containing 5 U/ml of GM-CSF at a concentration of 2×10^6/ml. […] After the indicated time, 10 μl of MTT (5 mg/ml) are added to the cultures and incubated for a further 4 h at 37° C. before solubilisation of the purple coloured formazan with acidic isopropanol. Optical densities are read at 570 nm using a plate reader.

[5] = system: Neutrophils; experiment: Neutrophil apoptosis by oligonucleosomal DNA fragments after 2-MOE oligonucleotides; assay type: cell-based, human; details: cytokine alone
Protocol: Neutrophil apoptosis is assessed by oligonucleosomal DNA fragmentation (Dibbert et al.(1999) Proc. Natl. Acad. Sci. USA 96, 13330-13335; Hebestreit et al. (1998), J. Exp. Med. 187, 415-425) according to Nicoletti et al. ((1991) J. Immunol. Meth. 139, 271-279). Briefly, cells are resuspended in hypotonic fluorochrome solution containing 50 μg/ml propidium iodide (Sigma Buchs, Switzerland), 0.1% sodium citrate (Sigma) and 0.1% (vol/vol) Triton-X 100 (Sigma), incubated at 4° C. for 10 h, and analyzed by flow cytometry (FACScan, Becton Dickinson, Heidelberg, Germany).
as §2
Values are means ±S.E.M. of four independent experiments. *, p<0.05; **, p<0.01; ***, p<0.001.

## Granulocyte macrophage colony-stimulating factor [GM-CSF]
[1]
  Levels of survivin (immunoblot) in normal control neutrophils: increased
[2]
  survivin mRNA in normal control neutrophils after cytokine addition: increase in survivin mRNA
[3]
  caspase-3 proform and 17-kDa fragment levels with cytokine: maintain greater amounts of the caspase-3 proform
[4]
  neutrophil survival (MTT, optical density at 570 nm): direct correlation between survival and concentrations of GM-CSF
[5]
  DNA-fragmentation of neutrophils with cytokine: prevent DNA-fragmentation
